Test results published in patent US20250326743A1, “CRYSTAL FORMS OF TRIAZINE DIONE DERIVATIVE AND PREPARATION METHOD THEREFOR” (Jiangsu Hengrui Pharmaceuticals Co., Ltd., priority 2022, published 2025).

Legend:
[1] = Influencing factor stability study (30 days, open flasks); assay type: physicochemical
[2] = Long-term/accelerated stability study (6 months); assay type: physicochemical
[3] = DVS (dynamic vapor sorption) hygroscopicity; assay type: physicochemical; conditions: for hygroscopic weight gain: DVS
Description: DVS refers to dynamic vapor sorption: The measurement was performed using SMS DVS Advantage; at 25° C., the humidity was changed as follows: 50%-95%-0%-95%-50%, in steps of 10% (5% for the last step) (specific humidity ranges are shown in corresponding patterns, and those listed here were used in most cases); the criterion was dm/dt being not greater than 0.002%.

[4] = Toxicokinetic evaluation of 14 days of repeated intragastric administration to SD rats; assay type: in vivo
Description: SD rats were used as the test animals. After intragastric administration of the test compounds to the SD rats, the concentrations of the original forms of the compounds in the plasma and the administration solutions were measured by the LC/MS/MS method at different time points.
Twenty-four SD rats, with an equal number of males and females, were evenly divided into 6 groups, each consisting of 4 rats with an equal number of males and females. The rats were provided by Vital River Laboratory Animal Technology Co., Ltd.
A certain amount of compound MYK-461 was weighed out, and 0.5% MC was added to prepare a colorless clear solution.
Compound MYK-461 was administered at doses of 0.5 mg/kg, 1.5 mg/kg, and 3 mg/kg, each with a volume of 10 mL/kg.
0.2-mL blood samples were collected from the orbit at 0.5 h, 1.0 h, 2.0 h, 4.0 h, 8.0 h, and 24.0 h after administration on day 1, and 0.2-mL blood samples were collected from the orbit before administration and at 0.5 h, 1.0 h, 2.0 h, 4.0 h, 8.0 h, and 24.0 h after administration on day 7 and day 14. The blood samples were placed into EDTA-K2 anticoagulation tubes and centrifuged at 10,000 rpm for 1 min (4° C.), and the plasma was isolated within 1 h and stored at −20° C. before analysis. The procedure starting from the blood collection to the centrifugation was performed under ice-bath conditions. Two hours after administration, food was provided. […]

[5] = Light exposure (4500 Lux), 5 days
[6] = Light exposure (4500 Lux), 10 days
[7] = Light exposure (4500 Lux), 30 days

## Cc1ccc(F)c([C@H](C)Nc2nc(=O)n(C3CCOCC3)c(=O)[nH]2)c1 [crystal form B, (S)-6-((1-(2-fluoro-5-methylphenyl)ethyl)amino)-3-(tetrahydro-2H-pyran-4-yl)-1,3,5-triazine-2,4(1H,3H)-dione]
[1]; 40° C., 5 days
  Color and state: Off-white solid
  Crystal form: No change
  Purity %: 99.8%
[1]; 40° C., 10 days
  Color and state: Off-white solid
  Crystal form: No change
  Purity %: 99.9%
[1]; 40° C., 30 days
  Color and state: Off-white solid
  Crystal form: No change
  Purity %: 99.9%
[1]; 60° C., 5 days
  Color and state: Off-white solid
  Crystal form: No change
  Purity %: 99.9%
[1]; 60° C., 10 days
  Color and state: Off-white solid
  Crystal form: No change
  Purity %: 99.9%
[1]; 60° C., 30 days
  Color and state: Off-white solid
  Crystal form: No change
  Purity %: 99.9%
[1]; 75% RH, 5 days
  Color and state: Off-white solid
  Crystal form: No change
  Purity %: 99.8%
[1]; 75% RH, 10 days
  Color and state: Off-white solid
  Crystal form: No change
  Purity %: 99.8%
[1]; 75% RH, 30 days
  Color and state: Off-white solid
  Crystal form: No change
  Purity %: 99.8%
[1]; 92.5% RH, 5 days
  Color and state: Off-white solid
  Crystal form: No change
  Purity %: 99.9%
[1]; 92.5% RH, 10 days
  Color and state: Off-white solid
  Crystal form: No change
  Purity %: 99.9%
[1]; 92.5% RH, 30 days
  Color and state: Off-white solid
  Crystal form: No change
  Purity %: 99.9%
[1]; Initial, 0 days
  Color and state: Off-white solid
  Purity %: 99.9%
[1]; [5]
  Color and state: Off-white solid
  Crystal form: No change
  Purity %: 99.9%
[1]; [6]
  Color and state: Off-white solid
  Crystal form: No change
  Purity %: 99.9%
[1]; [7]
  Color and state: Off-white solid
  Crystal form: No change
  Purity %: 99.9%
[1]; light exposure, 40° C. and 60° C., 75% RH and 92.5% RH, 30 days
  physical and chemical stability (conclusion): both good physical stability and good chemical stability
[2]; 25° C. with 60% RH and 40° C. with 75% RH, 6 months
  physical and chemical stability (conclusion): both good physical stability and good chemical stability
[2]; 25° C./60% RH, 1 month
  Crystal form: No change
  Purity %: 99.8%
[2]; 25° C./60% RH, 2 months
  Crystal form: No change
  Purity %: 99.8%
[2]; 25° C./60% RH, 3 months
  Crystal form: No change
  Purity %: 99.9%
[2]; 25° C./60% RH, 6 months
  Crystal form: No change
  Purity %: 99.9%
[2]; 40° C./75% RH, 1 month
  Crystal form: No change
  Purity %: 99.9%
[2]; 40° C./75% RH, 2 months
  Crystal form: No change
  Purity %: 99.9%
[2]; 40° C./75% RH, 3 months
  Crystal form: No change
  Purity %: 99.9%
[2]; 40° C./75% RH, 6 months
  Crystal form: No change
  Purity %: 99.9%
[2]; Initial
  Purity %: 99.9%
[3]; accelerated conditions, 70% RH
  hygroscopic weight gain: about 0.298%
[3]; extreme conditions, 90% RH
  hygroscopic weight gain: about 0.418%
[3]; normal storage conditions, 60% RH
  hygroscopic weight gain: about 0.242%
[3]; after DVS testing
  crystal form after DVS testing: did not change

## CC(C)n1c(=O)cc(N[C@@H](C)c2ccccc2)[nH]c1=O [MYK-461, reference compound]
[4]
  accumulation in the SD rats: caused significant accumulation
